Experimental findings from US11524938B2, “Aromatic sulfonamide derivatives” (Bayer Pharma Aktiengesellschaft, priority 2016, dated 2022) are described below.

Molecules are shown by their SMILES. Bounds are passed on as bounds.

The experiment addresses T1, human P2X4 (Homo sapiens, UniProt Q99571).
T1 sequence (Q99571 1-388): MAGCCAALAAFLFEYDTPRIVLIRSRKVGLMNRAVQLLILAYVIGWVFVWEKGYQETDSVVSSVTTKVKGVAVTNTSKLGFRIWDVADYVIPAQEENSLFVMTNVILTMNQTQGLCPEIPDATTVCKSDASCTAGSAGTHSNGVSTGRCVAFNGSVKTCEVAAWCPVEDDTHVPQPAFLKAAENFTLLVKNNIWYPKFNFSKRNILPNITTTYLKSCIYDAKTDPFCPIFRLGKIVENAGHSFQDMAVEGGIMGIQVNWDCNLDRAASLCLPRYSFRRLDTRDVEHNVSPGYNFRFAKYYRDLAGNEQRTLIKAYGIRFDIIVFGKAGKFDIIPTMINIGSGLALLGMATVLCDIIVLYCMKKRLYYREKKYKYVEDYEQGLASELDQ
Briefly: Human P2X4 HEK Cell FLIPR Assay. The class given is cell-based. The note with it: agonist Bz-ATP at EC80; for Emax: HEK293, HEK293 cells, percentage of maximal inhibition, read-out: Human P2X4 HEK Cells (FLIPR Assay) avg Efficacy [%]; for IC50: HEK293 cells, individual values listed where some fall outside detection range. In outline: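 HEK293 cells stably expressing human P2X4, Fluo8-AM loaded 30 min at 37° C, then compound 30 min at room temperature (0.5% DMSO, pH 7.4 buffer with 1.8 mM CaCl2). Bz-ATP at its daily-determined EC80 added; calcium fluorescence read over 120 sec; IC50 from peak RFU normalized to agonist control, triplicates.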

For `NS(=O)(=O)c1cc(NC(=O)Cc2ccccc2OC(F)(F)F)ccc1-n1cc(F)cn1` [Example 160, N-[4-(4-Fluoro-1H-pyrazol-1-yl)-3-sulfamoylphenyl]-2-[2-(trifluoromethoxy)phenyl]-acetamide], the Emax came out at 89% and the IC50 came to 0.058 µM.
In the same order, the values of `NS(=O)(=O)c1cc(NC(=O)Cc2cc(F)c(F)cc2Cl)ccc1-n1cc(F)cn1` [Example 161, 2-(2-Chloro-4,5-difluorophenyl)-N-[4-(4-fluoro-1H-pyrazol-1-yl)-3-sulfamoylphenyl]] are 43% and greater than 25 µM.
Consider `NS(=O)(=O)c1cc(NC(=O)Cc2cccc(C(F)(F)F)c2Cl)ccc1-n1cc(F)cn1` [Example 162, 2-[2-Chloro-3-(trifluoromethyl)phenyl]-N-[4-(4-fluoro-1H-pyrazol-1-yl)-3-sulfamoyl-phenyl]acetamide], for which the Emax came out at 92% and the IC50 was found to be 0.019 µM.
The corresponding values for `NS(=O)(=O)c1cc(NC(=O)Cc2cc(Cl)ccc2Cl)ccc1-n1cc(F)cn1` [Example 163, 2-(2,5-Dichlorophenyl)-N-[4-(4-fluoro-1H-pyrazol-1-yl)-3-sulfamoylphenyl]acetamide] are 89% and 0.093 µM.
The corresponding values for `NS(=O)(=O)c1cc(NC(=O)Cc2c(F)ccc(F)c2Cl)ccc1-n1cc(F)cn1` [Example 164, 2-(2-Chloro-3,6-difluorophenyl)-N-[4-(4-fluoro-1H-pyrazol-1-yl)-3-sulfamoylphenyl]-acetamide] are 83% and 0.027 µM.
The corresponding values for `Cc1ccc(Cl)c(CC(=O)Nc2ccc(-n3cc(F)cn3)c(S(N)(=O)=O)c2)c1` [Example 165, 2-(2-Chloro-5-methylphenyl)-N-[4-(4-fluoro-1H-pyrazol-1-yl)-3-sulfamoylphenyl]-acetamide] are 93% and 0.042 µM.
In the case of `Cc1cc(F)c(Br)cc1CC(=O)Nc1ccc(-n2cc(F)cn2)c(S(N)(=O)=O)c1` [Example 166, 2-(5-Bromo-4-fluoro-2-methylphenyl)-N-[4-(4-fluoro-1H-pyrazol-1-yl)-3-sulfamoylphenyl]acetamide], the Emax is 78% and the IC50 stood at 1.52 µM.
In the same order, the values of `CC(C)c1ccccc1CC(=O)Nc1ccc(-n2cc(F)cn2)c(S(N)(=O)=O)c1` [Example 167, N-[4-(4-Fluoro-1H-pyrazol-1-yl)-3-sulfamoylphenyl]-2-(2-isopropylphenyl)acetamide] are 94% and 0.064 µM.
In the same order, the values of `NS(=O)(=O)c1cc(NC(=O)Cc2cc(F)ccc2Cl)ccc1-n1cc(F)cn1` [Example 168, 2-(2-Chloro-5-fluorophenyl)-N-[4-(4-fluoro-1H-pyrazol-1-yl)-3-sulfamoylphenyl]-acetamide] are 75% and 0.07 µM.
The corresponding values for `NS(=O)(=O)c1cc(NC(=O)Cc2c(Cl)cccc2C(F)(F)F)ccc1-n1cc(F)cn1` [Example 169, 2-[2-Chloro-6-(trifluoromethyl)phenyl]-N-[4-(4-fluoro-1H-pyrazol-1-yl)-3-sulfamoyl-phenyl]acetamide] are 86% and 0.085 µM.
Take `CC(C(=O)Nc1ccc(-n2cc(F)cn2)c(S(N)(=O)=O)c1)c1c(F)cccc1F` (centres unmarked) [Example 171, 2-(2,6-Difluorophenyl)-N-[4-(4-fluoro-1H-pyrazol-1-yl)-3-sulfamoylphenyl]-propanamide]: the Emax amounted to 90% and the IC50 came out at 2.24 µM.
Regarding `Cc1ccc(CC(=O)Nc2ccc(-n3cc(Cl)cn3)c(S(N)(=O)=O)c2)cc1` [Example 172, N-[4-(4-Chloro-1H-pyrazol-1-yl)-3-sulfamoylphenyl]-2-(4-methylphenyl)acetamide], the Emax came out at 58% and the IC50 is 0.048 µM.
The corresponding values for `Cc1ccccc1CC(=O)Nc1ccc(-n2cc(Cl)cn2)c(S(N)(=O)=O)c1` [Example 173, N-[4-(4-Chloro-1H-pyrazol-1-yl)-3-sulfamoylphenyl]-2-(2-methylphenyl)acetamide] are 80% and 0.028 µM.
